The source of these data is patent US11472808B2, “Substituted pyrrolo[1,2-c]pyrimidines as hepatitis B antiviral agents” (Enanta Pharmaceuticals, Inc., priority 2019, dated 2022).

What is called EC50 is the concentration needed to bring the measured effect to its halfway point.

The experiment concerns HBV. As to the kind of experiment: HepAD38 anti-HBV assay: reduction of viral product accumulation (virion DNA qPCR, HBsAg/HBeAg ELISA). Type of experiment: cell-based. Conditions: Hepatitis B virus, 120 h; HepAD38 cells; concentration reducing viral product accumulation by 50% relative to no drug controls; harvest five days after compound addition; read-out: HepAD38 EC50. The essentials:
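EC50 values reflect 50% reduction, relative to untreated controls, in virion DNA (qPCR) or HBsAg/HBeAg (ELISA) from lysates or supernatants. Washed HepAD38 cells without tetracycline were exposed to compound for 5 days. In the 8-day variant, medium and compound were renewed on days 2 and 5.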
(Real-time PCR tracks product formation cycle by cycle.)
Turning to `O=S(=O)(N[C@H]1CC2=C(c3ccn(C(F)F)n3)[C@H](c3ccc(F)cc3Cl)N=C(c3nccs3)N2C1)c1ccc(-c2ccccn2)s1` [Example 400], the EC50 is less than 100 nM.

Take `O=S(=O)(C[C@@]1(F)CC2=C(c3ccn(C(F)F)n3)[C@H](c3ccc(F)cc3Cl)N=C(c3nccs3)N2C1)c1ccccc1` [Example 196]: the EC50 lay in the range of 100 to 400 nM.

With `O[C@@]1(CN2CCOCC2)CC2=C(c3ccn(C(F)F)n3)[C@H](c3ccc(F)cc3Cl)N=C(c3nccs3)N2C1` [Example 139], the concentration giving a half-maximal response (EC50) was in the range of 100 to 400 nM.

Consider `C[C@H](NC(=O)CC1(S(=O)(=O)N[C@H]2CC3=C(c4ccn(C(F)F)n4)[C@H](c4ccc(F)cc4Cl)N=C(c4nccs4)N3C2)CC1)c1ccccn1` [Example 374], for which the EC50 is less than 100 nM.

Take `CS(=O)(=O)NCCS(=O)(=O)N[C@H]1CC2=C(c3ccn(C(F)F)n3)[C@H](c3ccc(F)cc3Cl)N=C(c3nccs3)N2C1` [Example 344]: the EC50 was 100 to 400 nM.

For the molecule `COC(=O)CCCS(=O)(=O)N[C@H]1CC2=C(c3ccn(C(F)F)n3)[C@H](c3ccc(F)cc3Cl)N=C(c3nccs3)N2C1` [Example 9], the EC50 is less than 100 nM.

For the molecule `O=C(N[C@H]1CC2=C(c3ccn(C(F)F)n3)[C@H](c3ccc(F)cc3Cl)N=C(c3nccs3)N2C1)c1ncc(-c2ccccn2)s1` [Example 263], the EC50 is 100 to 400 nM.

Consider `O=C(N[C@H]1CC2=C(c3ccn(C(F)F)n3)[C@H](c3ccc(F)cc3Cl)N=C(c3nccs3)N2C1)OC1CCC1` [Example 253], for which the EC50 is less than 100 nM.

`COCCOC[C@]1(O)CC2=C(c3ccn(C(F)F)n3)[C@H](c3ccc(F)cc3Cl)N=C(c3nccs3)N2C1` [Example 113]: the EC50 was greater than 400 nM.

As for `COC(=O)c1ccc(C)c(S(=O)(=O)N[C@H]2CC3=C(c4ccn(C(F)F)n4)[C@H](c4ccc(F)cc4Cl)N=C(c4nccs4)N3C2)c1` [Example 25], the EC50 lay in the range of 100 to 400 nM.

For the molecule `O=C1N(CC#Cc2ccccc2)CCN1[C@H]1CC2=C(c3ccn(C(F)F)n3)[C@H](c3ccc(F)cc3Cl)N=C(c3nccs3)N2C1` [Example 48], the concentration giving a half-maximal response (EC50) is greater than 400 nM.

Regarding `O/N=C/[C@]1(F)CC2=C(c3ccn(C(F)F)n3)[C@H](c3ccc(F)cc3Cl)N=C(c3nccs3)N2C1` [Example 179], the EC50 is greater than 400 nM.

With `CNCCS(=O)(=O)N[C@H]1CC2=C(c3ccn(C(F)F)n3)[C@H](c3ccc(F)cc3Cl)N=C(c3nccs3)N2C1` [Example 52], the EC50 was less than 100 nM.

For `O=S(=O)(N[C@H]1CC2=C(c3ccn(C(F)F)n3)[C@H](c3ccc(F)cc3Cl)N=C(c3nccs3)N2C1)N1CCCC(F)(F)C1` [Example 278], the EC50 was less than 100 nM.

`CC(C)(C)OC(=O)Nc1cccc(S(=O)(=O)N[C@H]2CC3=C(c4ccn(C(F)F)n4)[C@H](c4ccc(F)cc4Cl)N=C(c4nccs4)N3C2)n1` [Example 382]: the EC50 is 100 to 400 nM.

Take `O=C(O)c1ccc(S(=O)(=O)N[C@H]2CC3=C(c4ccn(C(F)F)n4)[C@H](c4ccc(F)cc4Cl)N=C(c4nccs4)N3C2)cc1` [Example 6]: the EC50 is less than 100 nM.

`COC(=O)C1CCCN(CCS(=O)(=O)N[C@H]2CC3=C(c4ccn(C(F)F)n4)[C@H](c4ccc(F)cc4Cl)N=C(c4nccs4)N3C2)C1` (some centres unmarked) [Example 66]: the EC50 was greater than 400 nM.

As for `O=C(N[C@H]1CC2=C(c3ccn(C(F)F)n3)[C@H](c3ccc(F)cc3Cl)N=C(c3nccs3)N2C1)C1CCC1` [Example 237], the EC50 lay in the range of 100 to 400 nM.

Turning to `O=C(O)c1ccccc1S(=O)(=O)N[C@H]1CC2=C(c3ccn(C(F)F)n3)[C@H](c3ccc(F)cc3Cl)N=C(c3nccs3)N2C1` [Example 7], the EC50 was greater than 400 nM.

`COC(=O)CS(=O)(=O)N[C@H]1CC2=C(c3ccn(C(F)F)n3)[C@H](c3ccc(F)cc3Cl)N=C(c3nccs3)N2C1` [Example 12]: the EC50 was 100 to 400 nM.

As to `O=C(N[C@H]1CC2=C(c3ccn(C(F)F)n3)[C@H](c3ccc(F)cc3Cl)N=C(c3nccs3)N2C1)N1CCC(O)(CO)CC1` [Example 241], the EC50 was in the range of 100 to 400 nM.

Take `O=C(NCC(O)c1ccccn1)N[C@H]1CC2=C(c3ccn(C(F)F)n3)[C@H](c3ccc(F)cc3Cl)N=C(c3nccs3)N2C1` (some centres unmarked) [Example 218]: the EC50 was greater than 400 nM.

For the molecule `CCOC(=O)N[C@H]1CC2=C(c3ccn(C(F)F)n3)[C@H](c3ccc(F)cc3Cl)N=C(c3nccs3)N2C1` [Example 201], the EC50 was less than 100 nM.

For `COC(=O)c1cccc(S(=O)(=O)NCC2(F)CC3=C(c4ccn(C(F)F)n4)[C@H](c4ccc(F)cc4Cl)N=C(c4nccs4)N3C2)c1` (some centres unmarked) [Example 190], the EC50 is greater than 400 nM.

For the molecule `O=S(=O)(N[C@H]1CC2=C(c3ccn(C(F)F)n3)[C@H](c3ccc(F)cc3Cl)N=C(c3nccs3)N2C1)N1C[C@@H](O)[C@H](O)C1` [Example 102], the EC50 was less than 100 nM.

Consider `O=S(=O)(N[C@H]1CC2=C(c3ccn(C(F)F)n3)[C@H](c3ccc(F)cc3Cl)N=C(c3nccs3)N2C1)N1CC[C@H](F)C1` [Example 272], for which the EC50 is less than 100 nM.

With `C=CCOC[C@@]1(O)CC2=C(c3ccn(C(F)F)n3)[C@H](c3ccc(F)cc3Cl)N=C(c3nccs3)N2C1` (single isomer, unassigned) [Example 109], the EC50 lay in the range of 100 to 400 nM.

In the case of `O=S(=O)(N[C@H]1CC2=C(c3ccn(C(F)F)n3)[C@H](c3ccc(F)cc3Cl)N=C(c3nccs3)N2C1)N1CCC(F)(F)CC1` [Example 277], the EC50 was less than 100 nM.

Take `CC(C)[C@]1(O)CC[C@@H](c2ccc(S(=O)(=O)N[C@H]3CC4=C(c5ccn(C(F)F)n5)[C@H](c5ccc(F)cc5Cl)N=C(c5nccs5)N4C3)cc2)CC1` [Example 413]: the EC50 is less than 100 nM.

For `C=CCNC[C@@]1(O)CC2=C(c3ccn(C(F)F)n3)[C@H](c3ccc(F)cc3Cl)N=C(c3nccs3)N2C1` [Example 116], the EC50 is greater than 400 nM.

As for `C[C@@H]1CN(S(=O)(=O)N[C@H]2CC3=C(c4ccn(C(F)F)n4)[C@H](c4ccc(F)cc4Cl)N=C(c4nccs4)N3C2)C[C@@H]1C` [Example 299], the concentration giving a half-maximal response (EC50) was less than 100 nM.

Turning to `C[C@H]1CN(S(=O)(=O)N[C@H]2CC3=C(c4ccn(C(F)F)n4)[C@H](c4ccc(F)cc4Cl)N=C(c4nccs4)N3C2)C[C@@H]1C` [Example 300], the EC50 was less than 100 nM.

Regarding `O=C(O)c1cccc(S(=O)(=O)NC[C@@]2(O)CC3=C(c4ccn(C(F)F)n4)[C@H](c4ccc(F)cc4Cl)N=C(c4nccs4)N3C2)c1` [Example 133], the EC50 was greater than 400 nM.

For `COC(=O)OC[C@]1(F)CC2=C(c3ccn(C(F)F)n3)[C@H](c3ccc(F)cc3Cl)N=C(c3nccs3)N2C1` [Example 182], the EC50 lay within 100 to 400 nM.

As for `C#CCN1CCN([C@H]2CC3=C(c4ccn(C(F)F)n4)[C@H](c4ccc(F)cc4Cl)N=C(c4nccs4)N3C2)C1=O` [Example 41], the half-maximal effective concentration (EC50) was 100 to 400 nM.

Turning to `O=S(=O)(NCC(O)c1ccccn1)N[C@H]1CC2=C(c3ccn(C(F)F)n3)[C@H](c3ccc(F)cc3Cl)N=C(c3nccs3)N2C1` (some centres unmarked) [Example 308], the EC50 is less than 100 nM.

Regarding `O=S(=O)(N[C@H]1CC2=C(c3ccn(C(F)F)n3)[C@H](c3ccc(F)cc3Cl)N=C(c3nccs3)N2C1)N1CCCC1c1ccccn1` (some centres unmarked) [Example 288], the EC50 was less than 100 nM.

With `O=C(N[C@H]1CC2=C(c3ccn(C(F)F)n3)[C@H](c3ccc(F)cc3Cl)N=C(c3nccs3)N2C1)N1CCCC1` [Example 209], the EC50 is less than 100 nM.

Consider `COC(=O)Cc1cccc(S(=O)(=O)N[C@H]2CC3=C(c4ccn(C(F)F)n4)[C@H](c4ccc(F)cc4Cl)N=C(c4nccs4)N3C2)c1` [Example 31], for which the EC50 is less than 100 nM.

Turning to `O=C(N[C@H]1CC2=C(c3ccn(C(F)F)n3)[C@H](c3ccc(F)cc3Cl)N=C(c3nccs3)N2C1)c1cnccn1` [Example 233], the EC50 is less than 100 nM.

With `COC(=O)C1CCN(C(=O)N[C@H]2CC3=C(c4ccn(C(F)F)n4)[C@H](c4ccc(F)cc4Cl)N=C(c4nccs4)N3C2)CC1` [Example 211], the EC50 is 100 to 400 nM.

`O=C(N[C@H]1CC2=C(c3ccn(C(F)F)n3)[C@H](c3ccc(F)cc3Cl)N=C(c3nccs3)N2C1)N1CCC(O)CC1` [Example 208]: the EC50 is less than 100 nM.

`O=S(=O)(NC1CCCCC1)N[C@H]1CC2=C(c3ccn(C(F)F)n3)[C@H](c3ccc(F)cc3Cl)N=C(c3nccs3)N2C1` [Example 417]: the EC50 was less than 100 nM.

On to `O=C(O)c1cccc(S(=O)(=O)NC[C@]2(O)CC3=C(c4ccn(C(F)F)n4)[C@H](c4ccc(F)cc4Cl)N=C(c4nccs4)N3C2)c1` [Example 132], for which the EC50 was greater than 400 nM.

As for `O=C(N[C@H]1CC2=C(c3ccn(C(F)F)n3)[C@H](c3ccc(F)cc3Cl)N=C(c3nccs3)N2C1)N1CCC(O)(c2ncco2)CC1` [Example 245], the EC50 lay in the range of 100 to 400 nM.

Take `O=S(=O)(NCc1nccs1)N[C@H]1CC2=C(c3ccn(C(F)F)n3)[C@H](c3ccc(F)cc3Cl)N=C(c3nccs3)N2C1` [Example 307]: the EC50 is less than 100 nM.

Consider `O=C(O)CC1CCN(CCS(=O)(=O)N[C@H]2CC3=C(c4ccn(C(F)F)n4)[C@H](c4ccc(F)cc4Cl)N=C(c4nccs4)N3C2)CC1` [Example 63], for which the EC50 is greater than 400 nM.

Take `CC(C)(CNS(=O)(=O)N[C@H]1CC2=C(c3ccn(C(F)F)n3)[C@H](c3ccc(F)cc3Cl)N=C(c3nccs3)N2C1)c1ccccn1` [Example 315]: the EC50 was 100 to 400 nM.

As for `O[C@]1(CCl)CC2=C(c3ccn(C(F)F)n3)[C@H](c3ccc(F)cc3Cl)N=C(c3nccs3)N2C1` [Example 125], the EC50 is less than 100 nM.

Regarding `CC1CCC(C)N1S(=O)(=O)N[C@H]1CC2=C(c3ccn(C(F)F)n3)[C@H](c3ccc(F)cc3Cl)N=C(c3nccs3)N2C1` (some centres unmarked) [Example 291], the EC50 is less than 100 nM.

Regarding `COC(=O)c1ccc(Cl)c(S(=O)(=O)N[C@H]2CC3=C(c4ccn(C(F)F)n4)[C@H](c4ccc(F)cc4Cl)N=C(c4nccs4)N3C2)c1` [Example 24], the EC50 fell in the range of 100 to 400 nM.

Consider `CCOC(=O)Cn1cc(S(=O)(=O)N[C@H]2CC3=C(c4ccn(C(F)F)n4)[C@H](c4ccc(F)cc4Cl)N=C(c4nccs4)N3C2)cn1` [Example 38], for which the EC50 was greater than 400 nM.

Consider `O=C(N[C@H]1CC2=C(c3ccn(C(F)F)n3)[C@H](c3ccc(F)cc3Cl)N=C(c3nccs3)N2C1)N1CCOCC1` [Example 207], for which the EC50 was less than 100 nM.
